Assays:
[1] = system: MDA-MB-231 human breast carcinoma xenografts; assay: In vivo MR molecular imaging in MDA-MB-231 xenografts; parameters: species or system mice
[2] = system: HT-29 human colon carcinoma xenografts; assay: In vivo MR molecular imaging in HT-29 xenografts; parameters: species or system mice; details: 0.1 mmol/kg iv
Method: In vivo molecular imaging of fibrin-fibronectin complexes in tumor with the targeted contrast agent and MRI was evaluated in female athymic nu/nu mice bearing HT-29 human colon carcinoma xenografts with a T1-weighted 2D spin-echo sequence. A clinical contrast agent, Gd(DTPA-BMA), was used as a control. Competitive targeting of free CLT1 peptide to CLT1-(Gd-DTPA) was also studied with coinjection of CLT1-(Gd-DTPA) and a 3-fold excess of free CLT1 peptide. A group of 3 mice were used for each contrast agent. The mice were anesthetized by intramuscular administration of a mixture of ketamine (45 mg/kg) and xylazine (6 mg/kg) for MRI. The CLT1-(Gd-DTPA) and Gd(DTPA-BMA) was intravenously injected at a dose of 0.1 mmol/kg. Contrast enhanced MR images were acquired before and after injection at 1, 10, 20, 30 and 60 minutes on a Siemens Trio 3T scanner using a human wrist coil. High resolution 3D images were acquired with a 3D FLASH sequence with 25° flip angel, TR/TE=7.8/2.7 ms, slice thickness 0.5 mm, field of view (FOV) 120 mm, voxel size 0.5×0.5×0.5 mm T1-weighted 2D axial tumor images were acquired with a 2D spin echo sequence with TR 400 ms, TE 10 ms, 90° tip angel and FOV 50 mm Mice were sacrificed 24 hours post-injection and tumor tissues were cut and fixed with 3% paraformaldehyde and embedded in paraffin. Tissue sections (4-μm thickness) were incubated in 3% H2O2 for 10 minutes to block endogenous peroxidase activity and boiled in antigen retrieval solution for 15 minutes in microwave. The sections were then incubated with primary antibody overnight and secondary antibody the second day for visualization using the ABC kit (Santa Cruz Biotechnology).
MR signal intensity was also measured and the contrast to noise ratio (CNR) in the tumor tissues was calculated as CNR=(SItissue−SImuscle)/SDnoise.

[3] = up to 60 minutes post-injection

Question: Which results are given for `CNC(=O)CN(CCN(CCN(CC(=O)[O-])CC(=O)NC)CC(=O)[O-])CC(=O)[O-].[Gd+3]` [Gd(DTPA-BMA)]?
Answer: tumor enhancement (T1-weighted 2D spin-echo MRI) ([1]; after 30 minutes post-injection, 0.1 mmol/kg): decreased significantly; tumor enhancement (T1-weighted 2D spin-echo MRI) ([1]; first 15 minutes post-injection, CLT1-(Gd-DTPA) 0.05 mmol/kg, Gd(DTPA-BMA) 0.1 mmol/kg): Significant tumor enhancement; tumor enhancement compared with CLT1-(Gd-DTPA) [2]: didn't show a strong tumor enhancement; CNR time course, tumor inner area [2, 3]: decreased rapidly; CNR time course, tumor periphery [2, 3]: decreased rapidly

Reference: patent publication US20110236316A1, “PEPTIDE TARGETING IMAGING AGENTS AND METHODS OF USE THEREOF” (University of Utah Research Foundation, priority 2008, published 2011)
